From patent publication US11723540B2, “Device and method for in vivo photoacoustic diagnosis and photothermal purging of infected blood” (priority 2012, dated 2023)

How the values were obtained:
[1] = mouse, in vivo
From the text: In this experiment, a prototype PAFC system was used to detect Lymphazurin circulating in the blood vessels of a mouse ear.
The prototype PAFC system was built on the platform of an Olympus BX51 microscope (Olympus America, Inc.) and a tunable optical parametric oscillator (OPO) pumped by an Nd:YAG laser (Lotis Ltd., Minsk, Belarus). […] Laser energy was directed to the blood vessels using a conventional lens, or an optical fiber. PA waves emitted by the cells were detected by ultrasound transducers (unfocused Panametrics model XMS-310, 10 MHz; focused cylindrical Panametrics model V312-SM, 10 MHz, focused lengths of 6 mm, 12 mm, and 55 mm; and customized resonance transducers), and the ultrasound transducer outputs were conditioned by an amplifier (Panametrics model 5662, bandwidth 50 kHz-5 MHz; Panametrics model 5678, bandwidth 50 kHz-40 MHz; customized amplifiers with adjustable high and low frequency boundaries in the range to 50-200 KHz and 1-20 MHz, respectively; resonance bandwidth of 0.3-1.0 MHz). The amplifier output signals were recorded with a Boxcar data acquisition system (Stanford Research Systems, Inc.) and a Tektronix TDS 3032B oscilloscope, and were analyzed using standard and customized software. […] The signals from the oscilloscope screen were recorded with a digital camera (Sony, Inc.) and video camera (JVC, Inc.). […]

[2] = tested on: B16F10 cultured mouse melanoma cells; assay type: cell-based
From the text: B16F10 cultured mouse melanoma cells (ATCC, Rockville, Md.) were used in this experiment. The cells were maintained using standard procedures (Ara et al. 1990, Weight et al. 2006, Zharov et al. 2006), including serial passage in phenol-free RPMI 1640 medium (Invitrogen, Carlsbad, Calif.) supplemented with 10% fetal bovine serum (FBS, Invitrogen). For comparison to the detection of unlabeled melanoma cells, the endogenous cell absorption was increased by staining with ICG (Akorn Inc., USA), a strongly absorbent dye in the NIR range, for 30 min at 37° C. and in the presence of 5% CO2.

## CCN(CC)c1ccc(C(=C2C=CC(=[N+](CC)CC)C=C2)c2cc(S(=O)(=O)[O-])ccc2S(=O)(=O)[O-])cc1.[Na+] [Lymphazurin, Isosulfan Blue]
[1]
  clearance of Lymphazurin from the blood: 50 min

## CC1(C)C(/C=C/C=C/C=C/C=C2\N(CCCCS(=O)(=O)O)c3ccc4ccccc4c3C2(C)C)=[N+](CCCCS(=O)(=O)[O-])c2ccc3ccccc3c21 [ICG, Indocyanine Green]
[2]
  toxicity after labeling (trypan blue exclusion): No toxicity was observed
